Patent US20260297092A1, “PYRAZOLOPYRIMIDINE DERIVATIVES AS INHIBITORS OF NLRP3” (Takeda Pharmaceutical Company Limited, priority 2023, published 2026)

Assays:
[1] = test system: TNF-α (NF-κB pathway, THP-1 cells); experiment: TNF-α Assay (IC50); type: cell-based, human; details: Homo sapiens, 600 ng/mL LPS, 3 hours
Method in brief: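 THP-1 cells differentiated to macrophages with 25 ng/mL IFN for 24 h, plated 40,000/well in serum-free medium, preincubated with compounds 30 min at 37 °C, then stimulated with 600 ng/mL LPS for 3 h. Supernatant TNF-α measured by ELISA; IC50 from four-parameter logistic fit, 100% inhibition defined by TPCA-1.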

[2] = test system: NLRP3 inflammasome (IL-1β production in THP-1 cells); experiment: IL-1β TR-FRET Assay (percentage of inhibition at 300 nM, 6 μM or 10 μM); type: cell-based, human; details: Homo sapiens, LPS priming, ATP activation; for inhibition at 0.3 µM: THP-1, 300 nM, read-out: IL-1β inhibitory rate at 300 nM (%); for inhibition at 10 µM: THP-1, 10 μM, read-out: IL-1β inhibitory rate at 10 μM (%); for inhibition at 6 µM: THP-1, 6 μM, read-out: IL-1β inhibitory rate at 6 μM (%)
Method in brief: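 THP-1 cells were differentiated with 25 ng/mL IFN-γ for 24 h, primed with 50 ng/mL LPS in serum-free medium for 24 h, then given compound for 30 min before 20 mM ATP for 2 h. Supernatant IL-1β was measured by HTRF after 16-24 h at room temperature. Inhibition was normalized between DMSO (high) and 3 μM MCC-950 (low).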

| Compound | IC50 [1] [µM] | inhibition at 0.3 µM [2] [%] | inhibition at 10 µM [2] [%] | inhibition at 6 µM [2] [%] |
| --- | --- | --- | --- | --- |
| CCOc1nc2nn(-c3c(C)cc(C(F)F)cc3F)cc2c(=O)[nH]1 [Example 136, 2-[4-(difluoromethyl)-2-fluoro-6-methylphenyl]-6-ethoxy-2,5-dihydro-4H-pyrazolo[3,4-d]pyrimidin-4-one] | > 30 | 92 |  |  |
| CCOc1nc2nn(-c3c(C)cc(-n4cccn4)cc3C)cc2c(=O)[nH]1 [Example 139, 2-[2,6-dimethyl-4-(1H-pyrazol-1-yl)phenyl]-6-ethoxy-2,5-dihydro-4H-pyrazolo[3,4-d]pyrimidin-4-one] | > 30 |  | 95 |  |
| CO[C@@H]1CCCC[C@@H]1c1nc2nn(-c3c(C)cc(C)cc3O)cc2c(=O)[nH]1 (racemic) [Example 12, racemic mixture of 2-(2-hydroxy-4,6-dimethylphenyl)-6-[(1R,2R)-2-methoxycyclohexyl]-2,5-dihydro-4H-pyrazolo[3,4-d]pyrimidin-4-one and 2-(2-hydroxy-4,6-dimethylphenyl)-6-[(1S,2S)-2-methoxycyclohexyl]-2,5-dihydro-4H-pyrazolo[3,4-d]pyrimidin-4-one] | 3.4 | 99 |  |  |
| CO[C@@H]1CC[C@H]1c1nc2nn(-c3c(C)cc(C4CC4)cc3C)cc2c(=O)[nH]1 (racemic) [Example 253, racemic mixture of 2-(4-cyclopropyl-2,6-dimethylphenyl)-6-[(1R,2S)-2-methoxycyclobutyl]-2,5-dihydro-4H-pyrazolo[3,4-d]pyrimidin-4-one and 2-(4-cyclopropyl-2,6-dimethylphenyl)-6-[(1S,2R)-2-methoxycyclobutyl]-2,5-dihydro-4H-pyrazolo[3,4-d]pyrimidin-4-one] | > 30 |  |  | 95 |
| Cc1cc(C2CC2)cc(C(F)F)c1-n1cc2c(=O)[nH]c(COC(F)F)nc2n1 [Example 283, 2-[4-cyclopropyl-2-(difluoromethyl)-6-methylphenyl]-6-[(difluoromethoxy)methyl]-2,5-dihydro-4H-pyrazolo[3,4-d]pyrimidin-4-one] | > 30 |  |  | 99 |
| Cc1cc(C2CC2)cc(C)c1-n1cc2c(=O)[nH]c(-c3cn(C)nn3)nc2n1 [Example 229, 2-(4-cyclopropyl-2,6-dimethylphenyl)-6-(1-methyl-1H-1,2,3-triazol-4-yl)-2,5-dihydro-4H-pyrazolo[3,4-d]pyrimidin-4-one] | > 30 | 99 |  |  |
| Cc1nc(-c2nc3nn(-c4c(C)cc(C5CC5)cc4C)cc3c(=O)[nH]2)co1 [Example 272, 2-(4-cyclopropyl-2,6-dimethylphenyl)-6-(2-methyl-1,3-oxazol-4-yl)-2,5-dihydro-4H-pyrazolo[3,4-d]pyrimidin-4-one] | > 30 |  |  | 95 |
| Cc1ccc(-n2cc3c(=O)[nH]c(OCC(C)OCc4ccccc4)nc3n2)c(C)c1 (racemic) [Example 99, 6-[2-(benzyloxy)propoxy]-2-(2,4-dimethylphenyl)-2,5-dihydro-4H-pyrazolo[3,4-d]pyrimidin-4-one] | > 30 | 41 |  |  |
| CCOc1nc2nn(-c3c(F)cc(C4CC4)cc3F)c(C)c2c(=O)[nH]1 [Example 123, 2-(4-cyclopropyl-2,6-difluorophenyl)-6-ethoxy-3-methyl-2,5-dihydro-4H-pyrazolo[3,4-d]pyrimidin-4-one] | > 30 | 95 |  |  |
| Cc1cc(C)c(-n2cc3c(=O)[nH]c(-c4ncccn4)nc3n2)c(O)c1 [Example 34, 2-(2-hydroxy-4,6-dimethylphenyl)-6-(pyrimidin-2-yl)-2,5-dihydro-4H-pyrazolo[3,4-d]pyrimidin-4-one] | > 30 | 98 |  |  |
| CO[C@@H](C)COc1nc2nn(-c3c(F)cc(C4CC4)cc3C(F)F)cc2c(=O)[nH]1 [Example 203, 2-[4-cyclopropyl-2-(difluoromethyl)-6-fluorophenyl]-6-[(2S)-2-methoxypropoxy]-2,5-dihydro-4H-pyrazolo[3,4-d]pyrimidin-4-one] | > 30 | 99 |  |  |
| Cc1cc(C)c(-n2cc3c(=O)[nH]c(OCC(C)(F)F)nc3n2)c(O)c1 [Example 42, 6-(2,2-difluoropropoxy)-2-(2-hydroxy-4,6-dimethylphenyl)-2,5-dihydro-4H-pyrazolo[3,4-d]pyrimidin-4-one] | > 30 | 97 |  |  |
| CCOc1nc2nn(-c3c(C)cc(C4CC4)cc3C)cc2c(=O)[nH]1 [Example 132, 2-(4-cyclopropyl-2,6-dimethylphenyl)-6-ethoxy-2,5-dihydro-4H-pyrazolo[3,4-d]pyrimidin-4-one] | > 30 | 99 |  |  |
| COCc1nc2nn(-c3c(C)cc(C4CC4)cc3C)cc2c(=O)[nH]1 [Example 166, 2-(4-cyclopropyl-2,6-dimethylphenyl)-6-(methoxymethyl)-2,5-dihydro-4H-pyrazolo[3,4-d]pyrimidin-4-one] | > 30 | 103 |  |  |
| Cc1cc(C)c(-n2cc3c(=O)[nH]c(OC(C)C(F)(F)F)nc3n2)c(O)c1 (centres unmarked) [Example 43, 2-(2-hydroxy-4,6-dimethylphenyl)-6-[(1,1,1-trifluoropropan-2-yl)oxy]-2,5-dihydro-4H-pyrazolo[3,4-d]pyrimidin-4-one] | > 30 | 98 |  |  |
| Cc1cc(C)c(-n2cc3c(=O)[nH]c(-c4ccccn4)nc3n2)c(O)c1 [Example 9, 2-(2-hydroxy-4,6-dimethylphenyl)-6-(pyridin-2-yl)-2,5-dihydro-4H-pyrazolo[3,4-d]pyrimidin-4-one] | > 30 | 100 |  |  |
| Cc1cc(Cl)ccc1-n1cc2c(=O)[nH]c(C3CCCN(C)C3)nc2n1 (centres unmarked) [Example 102, 2-(4-chloro-2-methylphenyl)-6-(1-methylpiperidin-3-yl)-2,5-dihydro-4H-pyrazolo[3,4-d]pyrimidin-4-one] | > 30 |  | 97 |  |
| CCOc1nc2nn(-c3c(Br)cc(C4CC4)cc3COC)cc2c(=O)[nH]1 [Example 155, 2-[2-bromo-4-cyclopropyl-6-(methoxymethyl)phenyl]-6-ethoxy-2,5-dihydro-4H-pyrazolo[3,4-d]pyrimidin-4-one] | > 30 | 99 |  |  |
| COC1(c2nc3nn(-c4c(C)cc(C)cc4O)cc3c(=O)[nH]2)CCC1 [Example 35, 2-(2-hydroxy-4,6-dimethylphenyl)-6-(1-methoxycyclobutyl)-2,5-dihydro-4H-pyrazolo[3,4-d]pyrimidin-4-one] | > 30 | 96 |  |  |
| CCOc1nc2nn(-c3c(C)cc(C4(F)CC4)cc3C)cc2c(=O)[nH]1 [Example 245, 6-ethoxy-2-[4-(1-fluorocyclopropyl)-2,6-dimethylphenyl]-2,5-dihydro-4H-pyrazolo[3,4-d]pyrimidin-4-one] | > 30 |  |  | 101 |
| CCOc1nc2nn(-c3ncc(Br)cc3C)cc2c(=O)[nH]1 [Example 150, 2-(5-bromo-3-methylpyridin-2-yl)-6-ethoxy-2,5-dihydro-4H-pyrazolo[3,4-d]pyrimidin-4-one] | > 30 | 70 |  |  |
| Cc1cc(C)c(-n2cc3c(=O)[nH]c(-c4ccccc4Cl)nc3n2)c(O)c1 [Example 45, 6-(2-chlorophenyl)-2-(2-hydroxy-4,6-dimethylphenyl)-2,5-dihydro-4H-pyrazolo[3,4-d]pyrimidin-4-one] | > 30 | 100 |  |  |
